According to patent publication US7179824B2, “Arthropodicidal anthranilamides” (E. I. du Pont de Nemours and Company, priority 2001, dated 2007):

Compound `Cc1cc(Cl)cc(C(=O)NC(C)C)c1N(C(=O)c1cc(C(F)(F)F)n[nH]1)c1ncccc1Cl` [Compound 4, N-[4-chloro-2-methyl-6-[[(1-methylethyl)amino]carbonyl]phenyl]-N-(3-chloro-2-pyridinyl)-3-(trifluoromethyl)-1H-pyrazole-5-carboxamide] has a melting point of 173 to 176 °C.
